# According to patent publication US10131652B2, “Pyrimidinyloxy benzene derivatives as herbicides” (E. I. DU PONT DE NEMOURS AND COMPANY, priority 2014, dated 2018):
# Read-outs that look alike come from different tables or passages of the source.
# Key:
# Experiment in all cases: Test D pre-/postemergence plant response
# Type in all cases: in vivo
# [1] = system: Italian ryegrass (Lolium multiflorum); conditions: Lolium multiflorum; for pest or weed control at 8 g/ha: 8 g ai/ha; for pest or weed control at 16 g/ha: 16 g ai/ha; for pest or weed control at 31 g/ha: 31 g ai/ha; for pest or weed control at 62 g/ha: 62 g ai/ha
# Text: (§1) Seeds of plant species selected from blackgrass (Alopecurus myosuroides), Italian ryegrass (Lolium multiflorum), winter wheat (Triticum aestivum), galium (catchweed bedstraw, Galium aparine), corn (Zea mays), large (Lg) crabgrass (Digitaria sanguinalis), giant foxtail (Setaria faberii), johnsongrass (Sorghum halepense), lambsquarters (Chenopodium album), morningglory (Ipomoea coccinea), yellow nutsedge (Cyperus esculentus), pigweed (Amaranthus retroflexus), ragweed (common ragweed, Ambrosia elatior), soybean (Glycine max), bamyardgrass (Echinochloa crus-galli), oilseed rape (Brassica napus), waterhemp (common waterhemp, Amaranthus rudis), and velvetleaf (Abutilon theophrasti) were planted into a blend of loam soil and sand and treated preemergence with test chemicals formulated in a non-phytotoxic solvent mixture which included a surfactant. At the same time, plants selected from these crop and weed species and also kochia (Kochia scoparia), wild oat (Avena fatua), and chickweed (common chickweed, Stellaria media) were planted in pots containing Redi-Earth® planting medium (Scotts Company, 14111 Scottslawn Road, Marysville, Ohio 43041) comprising spaghnum peat moss, vermiculite, wetting agent and starter nutrients and treated with postemergence applications of test chemicals formulated in the same manner. Plants ranged in height from 2 to 18 cm (1- to 4-leaf stage) for postemergence treatments. Treated plants and controls were maintained in a greenhouse for 13 to 15 days, after which time all species were compared to controls and visually evaluated. Plant response ratings, summarized in Table D, are based on a scale of 0 to 100 where 0 is no effect and 100 is complete control. A dash (-) response means no test result.
# [2] = system: barnyardgrass (Echinochloa crus-galli); conditions: Echinochloa crus-galli; for pest or weed control at 8 g/ha: 8 g ai/ha; for pest or weed control at 16 g/ha: 16 g ai/ha; for pest or weed control at 31 g/ha: 31 g ai/ha; for pest or weed control at 62 g/ha: 62 g ai/ha
# Text: as §1
# [3] = system: blackgrass (Alopecurus myosuroides); conditions: Alopecurus myosuroides; for pest or weed control at 8 g/ha: 8 g ai/ha; for pest or weed control at 16 g/ha: 16 g ai/ha; for pest or weed control at 31 g/ha: 31 g ai/ha; for pest or weed control at 62 g/ha: 62 g ai/ha
# Text: as §1
# corn (Zea mays) = conditions: Zea mays; for Corn plant response rating (crop injury, 0 = no effect, 100 = complete kill) at 62 g/ha: 62 g ai/ha
# Text: as §1
# [4] = system: galium (catchweed bedstraw, Galium aparine); conditions: Galium; for pest or weed control at 8 g/ha: 8 g ai/ha; for pest or weed control at 16 g/ha: 16 g ai/ha; for pest or weed control at 31 g/ha: 31 g ai/ha; for pest or weed control at 62 g/ha: 62 g ai/ha
# Text: as §1
# [5] = system: giant foxtail (Setaria faberii); conditions: Setaria faberi; for pest or weed control at 8 g/ha: 8 g ai/ha; for pest or weed control at 16 g/ha: 16 g ai/ha; for pest or weed control at 31 g/ha: 31 g ai/ha; for pest or weed control at 62 g/ha: 62 g ai/ha
# Text: as §1
# [6] = system: johnsongrass (Sorghum halepense); conditions: Sorghum halepense; for pest or weed control at 8 g/ha: 8 g ai/ha; for pest or weed control at 16 g/ha: 16 g ai/ha; for pest or weed control at 31 g/ha: 31 g ai/ha; for pest or weed control at 62 g/ha: 62 g ai/ha
# Text: as §1
# [7] = system: lambsquarters (Chenopodium album); conditions: Chenopodium album; for pest or weed control at 8 g/ha: 8 g ai/ha; for pest or weed control at 16 g/ha: 16 g ai/ha; for pest or weed control at 31 g/ha: 31 g ai/ha; for pest or weed control at 62 g/ha: 62 g ai/ha
# Text: as §1
# [8] = system: large (Lg) crabgrass (Digitaria sanguinalis); conditions: Digitaria sanguinalis; for pest or weed control at 8 g/ha: 8 g ai/ha; for pest or weed control at 16 g/ha: 16 g ai/ha; for pest or weed control at 31 g/ha: 31 g ai/ha; for pest or weed control at 62 g/ha: 62 g ai/ha
# Text: as §1
# [9] = post-emergence, Postemergence, scale 0 to 100 (0 no effect, 100 complete control), read-out: Ryegrass, Italian plant response rating
# [10] = pre-emergence, Preemergence, scale 0 to 100 (0 no effect, 100 complete control), read-out: Plant response rating, Ryegrass, Italian
# [11] = post-emergence, Postemergence, scale 0 to 100 (0 no effect, 100 complete control), read-out: Barnyardgrass plant response rating
# [12] = pre-emergence, Preemergence, scale 0 to 100 (0 no effect, 100 complete control), read-out: Plant response rating, Barnyardgrass
# [13] = post-emergence, Postemergence, scale 0 to 100 (0 no effect, 100 complete control), read-out: Blackgrass plant response rating
# [14] = pre-emergence, Preemergence, scale 0 to 100 (0 no effect, 100 complete control), read-out: Plant response rating, Blackgrass
# [15] = post-emergence, Postemergence, scale 0 to 100 (0 no effect, 100 complete control), read-out: Galium plant response rating
# [16] = pre-emergence, Preemergence, scale 0 to 100 (0 no effect, 100 complete control), read-out: Plant response rating, Galium
# [17] = post-emergence, Postemergence, scale 0 to 100 (0 no effect, 100 complete control), read-out: Foxtail, Giant plant response rating
# [18] = pre-emergence, Preemergence, scale 0 to 100 (0 no effect, 100 complete control), read-out: Plant response rating, Foxtail, Giant
# [19] = post-emergence, Postemergence, scale 0 to 100 (0 no effect, 100 complete control), read-out: Johnsongrass plant response rating
# [20] = pre-emergence, Preemergence, scale 0 to 100 (0 no effect, 100 complete control), read-out: Plant response rating, Johnsongrass
# [21] = post-emergence, Postemergence, scale 0 to 100 (0 no effect, 100 complete control), read-out: Lambsquarters plant response rating
# [22] = pre-emergence, Preemergence, scale 0 to 100 (0 no effect, 100 complete control), read-out: Plant response rating, Lambsquarters
# [23] = post-emergence, Postemergence, scale 0 to 100 (0 no effect, 100 complete control), read-out: Crabgrass, Large plant response rating
# [24] = pre-emergence, Preemergence, scale 0 to 100 (0 no effect, 100 complete control), read-out: Plant response rating, Crabgrass, Large
compound,measurement,setting,value
"FC(F)c1cc(-c2ccccc2Oc2ncc(Cl)cn2)no1 [Compound 35, 5-chloro-2-[2-[5-(difluoromethyl)-3-isoxazolyl]phenoxy]pyrimidine]",pest or weed control at 8 g/ha,"[1]; post-emergence, Postemergence, read-out: Plant response rating (scale 0 to 100), Ryegrass, Italian",0%
same,pest or weed control at 16 g/ha,[1]; [9],0%
same,pest or weed control at 31 g/ha,[1]; [9],5%
same,pest or weed control at 62 g/ha,"[1]; post-emergence, Postemergence, scale 0 to 100, 0 no effect, 100 complete control, read-out: Plant response rating, Ryegrass, Italian",20%
same,pest or weed control at 8 g/ha,[1]; [10],0%
same,pest or weed control at 16 g/ha,[1]; [10],0%
same,pest or weed control at 31 g/ha,[1]; [10],30%
same,pest or weed control at 62 g/ha,[1]; [10],80%
same,pest or weed control at 8 g/ha,"[2]; post-emergence, Postemergence, read-out: Plant response rating (scale 0 to 100), Barnyardgrass",10%
same,pest or weed control at 16 g/ha,[2]; [11],15%
same,pest or weed control at 31 g/ha,[2]; [11],20%
same,pest or weed control at 62 g/ha,"[2]; post-emergence, Postemergence, scale 0 to 100, 0 no effect, 100 complete control, read-out: Plant response rating, Barnyardgrass",20%
same,pest or weed control at 62 g/ha,"[2]; pre-emergence, Preemergence, read-out: Plant response rating (scale 0 to 100), Barnyardgrass",100%
same,pest or weed control at 8 g/ha,[2]; [12],5%
same,pest or weed control at 16 g/ha,[2]; [12],65%
same,pest or weed control at 31 g/ha,[2]; [12],75%
same,pest or weed control at 8 g/ha,"[3]; post-emergence, Postemergence, read-out: Plant response rating (scale 0 to 100), Blackgrass",30%
same,pest or weed control at 16 g/ha,[3]; [13],35%
same,pest or weed control at 31 g/ha,[3]; [13],40%
same,pest or weed control at 62 g/ha,"[3]; post-emergence, Postemergence, scale 0 to 100, 0 no effect, 100 complete control, read-out: Plant response rating, Blackgrass",60%
same,pest or weed control at 8 g/ha,[3]; [14],70%
same,pest or weed control at 16 g/ha,[3]; [14],70%
same,pest or weed control at 31 g/ha,[3]; [14],90%
same,pest or weed control at 62 g/ha,[3]; [14],90%
same,plant injury at 8 g/ha,"corn (Zea mays); post-emergence, Postemergence, 8 g ai/ha, read-out: Plant response rating (scale 0 to 100), Corn",5%
same,plant injury at 16 g/ha,"corn (Zea mays); post-emergence, Postemergence, 16 g ai/ha, scale 0 to 100 (0 no effect, 100 complete control), read-out: Corn plant response rating",5%
same,plant injury at 31 g/ha,"corn (Zea mays); post-emergence, Postemergence, 31 g ai/ha, scale 0 to 100 (0 no effect, 100 complete control), read-out: Corn plant response rating",10%
same,"Corn plant response rating (crop injury, 0 = no effect, 100 = complete kill) at 62 g/ha","corn (Zea mays); post-emergence, Postemergence, scale 0 to 100, 0 no effect, 100 complete control",20%
same,"Corn plant response rating (crop injury, 0 = no effect, 100 = complete kill) at 8 g/ha","corn (Zea mays); pre-emergence, Preemergence, 8 g ai/ha, scale 0 to 100 (0 no effect, 100 complete control)",0%
same,"Corn plant response rating (crop injury, 0 = no effect, 100 = complete kill) at 16 g/ha","corn (Zea mays); pre-emergence, Preemergence, 16 g ai/ha, scale 0 to 100 (0 no effect, 100 complete control)",0%
same,"Corn plant response rating (crop injury, 0 = no effect, 100 = complete kill) at 31 g/ha","corn (Zea mays); pre-emergence, Preemergence, 31 g ai/ha, scale 0 to 100 (0 no effect, 100 complete control)",0%
same,"Corn plant response rating (crop injury, 0 = no effect, 100 = complete kill) at 62 g/ha","corn (Zea mays); pre-emergence, Preemergence, scale 0 to 100 (0 no effect, 100 complete control)",15%
same,pest or weed control at 8 g/ha,"[4]; post-emergence, Postemergence, read-out: Plant response rating (scale 0 to 100), Galium",80%
same,pest or weed control at 16 g/ha,[4]; [15],70%
same,pest or weed control at 31 g/ha,[4]; [15],75%
same,pest or weed control at 62 g/ha,"[4]; post-emergence, Postemergence, scale 0 to 100, 0 no effect, 100 complete control, read-out: Plant response rating, Galium",85%
same,pest or weed control at 8 g/ha,[4]; [16],85%
same,pest or weed control at 16 g/ha,[4]; [16],100%
same,pest or weed control at 31 g/ha,[4]; [16],100%
same,pest or weed control at 62 g/ha,[4]; [16],100%
same,pest or weed control at 8 g/ha,"[5]; post-emergence, Postemergence, read-out: Plant response rating (scale 0 to 100), Foxtail, Giant",5%
same,pest or weed control at 16 g/ha,[5]; [17],5%
same,pest or weed control at 31 g/ha,[5]; [17],10%
same,pest or weed control at 62 g/ha,"[5]; post-emergence, Postemergence, scale 0 to 100, 0 no effect, 100 complete control, read-out: Plant response rating, Foxtail, Giant",15%
same,pest or weed control at 8 g/ha,[5]; [18],70%
same,pest or weed control at 16 g/ha,[5]; [18],90%
same,pest or weed control at 31 g/ha,[5]; [18],98%
same,pest or weed control at 62 g/ha,[5]; [18],100%
same,pest or weed control at 8 g/ha,"[6]; post-emergence, Postemergence, read-out: Plant response rating (scale 0 to 100), Johnsongrass",0%
same,pest or weed control at 16 g/ha,[6]; [19],10%
same,pest or weed control at 31 g/ha,[6]; [19],5%
same,pest or weed control at 62 g/ha,"[6]; post-emergence, Postemergence, scale 0 to 100, 0 no effect, 100 complete control, read-out: Plant response rating, Johnsongrass",35%
same,pest or weed control at 8 g/ha,[6]; [20],0%
same,pest or weed control at 16 g/ha,[6]; [20],10%
same,pest or weed control at 31 g/ha,[6]; [20],60%
same,pest or weed control at 62 g/ha,[6]; [20],98%
same,pest or weed control at 8 g/ha,"[7]; post-emergence, Postemergence, read-out: Plant response rating (scale 0 to 100), Lambsquarters",75%
same,pest or weed control at 16 g/ha,[7]; [21],80%
same,pest or weed control at 31 g/ha,[7]; [21],85%
same,pest or weed control at 62 g/ha,"[7]; post-emergence, Postemergence, scale 0 to 100, 0 no effect, 100 complete control, read-out: Plant response rating, Lambsquarters",95%
same,pest or weed control at 8 g/ha,[7]; [22],100%
same,pest or weed control at 16 g/ha,[7]; [22],100%
same,pest or weed control at 31 g/ha,[7]; [22],98%
same,pest or weed control at 62 g/ha,[7]; [22],100%
same,pest or weed control at 8 g/ha,"[8]; post-emergence, Postemergence, read-out: Plant response rating (scale 0 to 100), Crabgrass, Large",5%
same,pest or weed control at 16 g/ha,[8]; [23],10%
same,pest or weed control at 31 g/ha,[8]; [23],10%
same,pest or weed control at 62 g/ha,"[8]; post-emergence, Postemergence, scale 0 to 100, 0 no effect, 100 complete control, read-out: Plant response rating, Crabgrass, Large",10%
same,pest or weed control at 8 g/ha,[8]; [24],80%
same,pest or weed control at 16 g/ha,[8]; [24],100%
same,pest or weed control at 31 g/ha,[8]; [24],100%
same,pest or weed control at 62 g/ha,[8]; [24],100%
